# Source: patent US20150299188A1, “HETEROCYCLIC COMPOUND” (priority 2012, published 2015)
# Test system: FLAP (5-lipoxygenase activating protein)
# Assay: In vitro binding test: displacement of [3H]-7-chloro-3-(5-((3-fluoropyridin-2-yl)methoxy)-2-methylphenyl)-3,4-dihydroquinazolin-2(1H)-one from Sf9 microsome fractions
# Set-up: species or system human and mouse
# Details: Sf9 microsome fractions expressing FLAP; 100% = radioligand binding with 10 μM sodium 3-(3-(tert-butylsulfanyl)-1-(4-chlorobenzyl)-5-isopropyl-1H-indol-2-yl)-2,2-dimethylpropanoate, 0% = DMSO; test compound concentration not given
# Description: As an assay buffer, 100 mM Tris-HCl, pH 7.5, 140 mM NaCl, 2 mM EDTA, 0.5 mM dithiothreitol, 5% glycerol, 0.05% Tween20 was used. Sf9 microsome fractions expressing human and mouse FLAPs were dispensed by 50 μL to a 96-well plate at 2 μg/mL. Furthermore, a test compound (25 μL) diluted 4-fold of the final concentration with the assay buffer was added and mixed therewith, and the mixture was incubated at room temperature for 10 min. Furthermore, 120 nM [^3H]-7-chloro-3-(5-((3-fluoropyridin-2-yl)methoxy)-2-methylphenyl)-3,4-dihydroquinazolin-2(1H)-one was added by 25 μL, and mixed therewith, and the mixture was incubated at room temperature for 60 min. Thereafter, the cells were transferred to a 96-well GF/B Unifilter plate with a FilterMate cell harvester, and washed 3 times with a wash buffer (100 mM Tris-HCl pH 7.5, 0.05% Tween20, 200 μL) cooled to 4° C. The GF/B Unifilter plate was dried at 37° C., Microscint 0 was added and measured by TopCount NXT (PerkinElmer). As for the inhibitory activity, the inhibitory rate was calculated wherein the [^3H]-7-chloro-3-(5-((3-fluoropyridin-2-yl)methoxy)-2-methylphenyl)-3,4-dihydroquinazolin-2(1H)-one binding amount in the presence of 10 μM sodium 3-(3-(tert-butylsulfanyl)-1-(4-chlorobenzyl)-5-isopropyl-1H-indol-2-yl)-2,2-dimethylpropanoate was 100%, and the [^3H]-7-chloro-3-(5-((3-fluoropyridin-2-yl)methoxy)-2-methylphenyl)-3,4-dihydroquinazolin-2(1H)-one binding amount in the presence of DMSO was 0%.
row,Structure (SMILES),inhibitory rate (%)
1,"Cc1ccc(OC(C)c2ncccc2F)cc1N1Cc2ccccc2NC1=O (stereo not shown) [Example 215, 3-(5-(1-(3-fluoropyridin-2-yl)ethoxy)-2-methylphenyl)-3,4-dihydroquinazolin-2(1H)-one]",79
2,"Cc1ccc(OCc2ncccc2F)cc1N1Cc2c(Cl)cccc2N(CC2CC2)C1=O [Example 284, 5-chloro-1-(cyclopropylmethyl)-3-(5-((3-fluoropyridin-2-yl)methoxy)-2-methylphenyl)-3,4-dihydroquinazolin-2(1H)-one]",105
3,"Cc1ccc(OCc2ncccc2F)cc1N1Cc2ccc(C(=O)N3CCCC(O)C3)cc2NC1=O (stereo not shown) [Example 227, 3-(5-((3-fluoropyridin-2-yl)methoxy)-2-methylphenyl)-7-((3-hydroxypiperidin-1-yl)carbonyl)-3,4-dihydroquinazolin-2(1H)-one]",90
4,"Cc1ccc(OCc2ncccc2F)cc1-n1c(=O)[nH]c2cc(N)ccc2c1=O [Example 348, 7-amino-3-(5-((3-fluoropyridin-2-yl)methoxy)-2-methylphenyl)quinazoline-2,4(1H,3H)-dione]",101
5,"Cc1cc2c(cc1N1Cc3c(Cl)cnc(N4CCCC4)c3NC1=O)OC(c1ncccc1F)CC2 (stereo not shown) [Example 158, 5-chloro-3-(2-(3-fluoropyridin-2-yl)-6-methyl-3,4-dihydro-2H-chromen-7-yl)-8-(pyrrolidin-1-yl)-3,4-dihydropyrido[3,4-d]pyrimidin-2(1H)-one]",99
6,"Cc1cc2c(c(C3CC3)n1)CN(c1cc3c(cc1C)CCC(c1ncccc1F)O3)C(=O)N2 (stereo not shown) [Example 83, 5-cyclopropyl-3-(2-(3-fluoropyridin-2-yl)-6-methyl-3,4-dihydro-2H-chromen-7-yl)-7-methyl-3,4-dihydropyrido[4,3-d]pyrimidin-2(1H)-one]",96
7,"O=c1[nH]c2ccccc2c(=O)n1-c1cc(OCc2ncccc2F)ccc1Cl [Example 344, 3-(2-chloro-5-((3-fluoropyridin-2-yl)methoxy)phenyl)quinazoline-2,4(1H,3H)-dione]",114

# Results, then the molecule that gave them:
row,inhibitory rate (%),Structure (SMILES)
1,98,"Cn1cc(-c2ncc(C3CC3)c3c2NC(=O)N(c2cc4c(cc2Cl)CCC(c2ncccc2F)O4)C3)cn1 (stereo not shown) [Example 163, 3-(6-chloro-2-(3-fluoropyridin-2-yl)-3,4-dihydro-2H-chromen-7-yl)-5-cyclopropyl-8-(1-methyl-1H-pyrazol-4-yl)-3,4-dihydropyrido[3,4-d]pyrimidin-2(1H)-one]"
2,116,"Cc1ccc(OCc2ncccc2F)cc1N1Cc2ccc(C(=O)NC3CC3)cc2NC1=O [Example 261, N-cyclopropyl-3-(5-((3-fluoropyridin-2-yl)methoxy)-2-methylphenyl)-2-oxo-1,2,3,4-tetrahydroquinazoline-7-carboxamide]"
3,96,"O=C1Nc2cc(OC(F)F)nc(C3CC3)c2CN1c1cc2c(cc1Cl)CC[C@@H](c1ncccc1F)O2 [Example 20, 3-((2S)-6-chloro-2-(3-fluoropyridin-2-yl)-3,4-dihydro-2H-chromen-7-yl)-5-cyclopropyl-7-(difluoromethoxy)-3,4-dihydropyrido[4,3-d]pyrimidin-2(1H)-one]"
4,94,"Cc1ccc(OCc2ncccc2F)cc1N1Cc2c(ccnc2C)NC1=O [Example 323, 3-(5-((3-fluoropyridin-2-yl)methoxy)-2-methylphenyl)-5-methyl-3,4-dihydropyrido[4,3-d]pyrimidin-2(1H)-one]"
5,101,"Cc1ccc(OCc2c(F)cccc2F)cc1N1Cc2ccc(C(=O)NCCO)cc2NC1=O [Example 197, 3-(5-((2,6-difluorobenzyl)oxy)-2-methylphenyl)-N-(2-hydroxyethyl)-2-oxo-1,2,3,4-tetrahydroquinazoline-7-carboxamide]"
6,95,"O=C1Nc2cccc(Cl)c2CN1c1cc(OCc2ncccc2F)c(F)cc1Cl [Example 287, 5-chloro-3-(2-chloro-4-fluoro-5-((3-fluoropyridin-2-yl)methoxy)phenyl)-3,4-dihydroquinazolin-2(1H)-one]"
